Like-named read-outs stand apart in the source and are kept apart here.
Assays:
[1] = biological target: T1, ROCK2 in MOLM-14 cell lysate (Homo sapiens, UniProt O75116); test: Native kinase capture immunoblot, ROCK2; format: binding
T1 construct: endogenous in cells; host or cells: MOLM-14 cell lysate
Experimental: Native Kinase Capture Immunoblot and Native Kinome-Wide Profiling. […] Experiment was performed twice with one immunoblot shown.

[2] = system: STAT1 S727 phosphorylation in NK cells; test: STAT1 pS727 inhibition in NK cells in vivo; settings: C57BL/6 mice, NK cells from spleen
HEL = test: Cell growth assay, HEL; format: cell-based; settings: Homo sapiens, 240 h, CA, after 10 days, read-out: Mean GI50 (nM), HEL
Experimental: (§1) Cell Culture. All media was supplemented with 100 U/mL penicillin and 100 μg/mL streptomycin. Human cancer cell lines were grown in the following media: MV4; 11, RS4; 11, K562, HEL, MOLM-14, MEG-01 in RPMI-1640, 10% FBS; SET-2 in RPMI-1640, 20% FBS; UKE-1 in RPMI-1640, 10% FBS, 10% horse serum and 1 μM hydrocortisone; SKNO-1 and TF-1 in RPMI-1640, 10% FBS, and 10 or 2 ng/mL GM-CSF, respectively; HaCaT in DMEM, 10% FBS; and HCT116 in McCoy's 5 A, 10% FBS (proliferation assay) or DMEM, 10% FBS (gene expression study). HepG2, MV4;11, RS4;11, MEG-01, TF-1, HCT116 and K562 were from ATCC. SKNO-1 was from DSMZ. HEL, UKE-1, and SET-2 were provided by Ross L. Levine and HaCaT, MV4;11-mCLP, and MOLM-14 by Van Wilson, Andrew L. Kung, and Scott A. Armstrong, respectively. MOLM-14 cells were authenticated by STR profiling and flow cytometry and all cell lines were routinely tested and found to be negative for mycoplasma.

TF-1 = test: Cell growth assay, TF-1; format: cell-based; settings: Homo sapiens, TF-1, 240 h; CA, after 10 days; read-out: Mean GI50 (nM), TF-1
Experimental: as §1

MOLM-14 = test: Cell growth assay, MOLM-14; format: cell-based; settings: Homo sapiens
Experimental: All media was supplemented with 100 U/mL penicillin and 100 μg/mL streptomycin. Human cancer cell lines were grown in the following media: MV4; 11, K562, MOLM-14 in RPMI-1640, 10% FBS; SKNO-1 in RPMI-1640, 10% FBS, and 10 ng/mL GM-CSF; MV4;11 and K562 were from ATCC. SKNO-1 was from DSMZ.
as §1

CDK7 (TFIIH) = biological target: T2, CDK7 (TFIIH) (Homo sapiens, UniProt P50613); test: In vitro kinase assay, CDK7 (TFIIH); format: biochemical
T2 construct: TFIIH was captured from HeLa nuclear extract; endogenous in cells; host or cells: HeLa nuclear extract
Experimental: Kinase Assays. Data was quantified with ImageJ and plotted and fitted with GraphPad Prism 6.0. For STAT1 transactivation domain (TAD), 750 ng of GST-STAT1 TAD (residues 639-750) was incubated with ˜50 ng recombinant CDK8 module at 30° C. for 8 min in kinase buffer (25 mM Tris pH 8, 2 mM DTT, 100 μM cold ATP, 100 mM KCl, 10 mM MgCl2 and 2.5 μCi [γ-^32P] ATP (Perkin Elmer) per reaction). […] 12% SDS-PAGE gels were subsequently silver stained, exposed for 18 h on a Phosphor Screen and imaged (Typhoon 9400, GE Life Sciences). For pol II CTD, 400 ng of GST-CTD (murine sequence) was incubated with ˜40 ng recombinant CDK8 module, 25 ng TFIIH, or 40 ng P-TEFb at 30° C. for 60 min in kinase buffer. Kinase amounts were chosen to give similar total pol II CTD signal. 9% SDS-PAGE gels were silver stained and exposed as above. In vitro FLAG-CDK8 kinase assays used ˜40 ng kinase and 500 ng GST-CTD. For STAT1 or Smad2/3, cells were treated with compound for 1 h followed by IFN-γ or TGF-β1 for 1 h, then washed twice with cold PBS, and lysed (RIPA buffer with inhibitors R0278, P8340, P0044, P5762 Sigma-Aldrich). Standard immunoblotting was then performed with one immunoblot shown. All experiments were performed twice.
Protein Purification. Buffers for purification and elution of recombinant proteins included 0.25 mM PMSF, 1 mM DTT, 1 mM benzamidine, and 1 mM sodium metabisulfite. […]

T1 sequence (O75116 whole entry): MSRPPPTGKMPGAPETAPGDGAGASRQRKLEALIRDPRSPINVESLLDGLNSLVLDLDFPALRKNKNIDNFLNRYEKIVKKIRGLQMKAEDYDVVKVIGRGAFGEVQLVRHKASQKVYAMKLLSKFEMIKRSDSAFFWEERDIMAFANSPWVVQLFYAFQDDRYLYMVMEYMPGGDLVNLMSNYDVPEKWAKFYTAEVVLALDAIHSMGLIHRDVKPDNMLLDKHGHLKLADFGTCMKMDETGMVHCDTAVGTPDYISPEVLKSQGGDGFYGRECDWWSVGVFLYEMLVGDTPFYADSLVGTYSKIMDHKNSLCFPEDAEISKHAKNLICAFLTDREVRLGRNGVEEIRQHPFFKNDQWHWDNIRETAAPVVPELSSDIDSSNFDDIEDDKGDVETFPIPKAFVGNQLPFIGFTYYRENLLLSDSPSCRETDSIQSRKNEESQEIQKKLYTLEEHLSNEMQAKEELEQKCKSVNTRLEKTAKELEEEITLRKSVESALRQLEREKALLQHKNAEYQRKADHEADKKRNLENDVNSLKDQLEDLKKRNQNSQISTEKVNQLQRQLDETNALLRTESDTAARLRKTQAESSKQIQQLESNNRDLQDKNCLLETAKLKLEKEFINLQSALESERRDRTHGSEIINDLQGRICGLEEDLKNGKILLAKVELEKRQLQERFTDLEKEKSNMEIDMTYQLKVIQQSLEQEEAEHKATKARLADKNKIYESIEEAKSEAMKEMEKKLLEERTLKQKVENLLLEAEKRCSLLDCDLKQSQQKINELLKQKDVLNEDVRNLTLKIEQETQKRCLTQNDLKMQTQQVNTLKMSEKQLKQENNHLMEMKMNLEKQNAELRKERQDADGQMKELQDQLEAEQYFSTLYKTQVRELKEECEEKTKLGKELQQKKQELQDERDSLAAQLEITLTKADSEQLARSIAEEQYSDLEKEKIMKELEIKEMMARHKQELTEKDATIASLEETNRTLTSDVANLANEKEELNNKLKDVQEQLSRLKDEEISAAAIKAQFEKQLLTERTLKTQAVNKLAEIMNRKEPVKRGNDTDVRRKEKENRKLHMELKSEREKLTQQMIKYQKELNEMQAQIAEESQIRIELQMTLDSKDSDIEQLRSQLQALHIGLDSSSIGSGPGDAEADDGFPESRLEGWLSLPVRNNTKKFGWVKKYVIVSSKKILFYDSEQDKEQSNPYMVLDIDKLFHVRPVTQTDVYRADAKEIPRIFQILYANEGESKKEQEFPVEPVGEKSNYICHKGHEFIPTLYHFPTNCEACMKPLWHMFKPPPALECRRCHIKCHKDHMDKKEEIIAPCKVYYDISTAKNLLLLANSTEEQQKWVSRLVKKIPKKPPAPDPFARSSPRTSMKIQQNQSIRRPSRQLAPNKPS

## CN(C)[C@H]1C[C@@]23CC[C@@]4(O2)C(=CC[C@@]2(C)[C@@H](c5ccc6ccncc6c5)CC[C@H]24)C=C3[C@@H](O)[C@@H]1O [CA, cortistatin A]
[1]
  binding of ROCK2 (no binding up to): > 2500 nM
[2]
  STAT1 S727 phosphorylation in NK cells: dose-dependent reduction
HEL
  GI50: > 1000 nM
TF-1
  GI50: 350 nM
MOLM-14; MOLM-14, 240 h, CA, after 10 days, read-out: Mean GI50 (nM), MOLM-14
  GI50: 5 nM
MOLM-14; MOLM-14, 240 h, read-out: MOLM14 GI50 day 10
  GI50: 5 nM
MOLM-14; MOLM-14, Table 5, read-out: GI50 (nM), MOLM-14
  GI50: 5 nM
CDK7 (TFIIH)
  inhibition of CDK7 (TFIIH): did not inhibit
